US11053248B2, “[1,2,4]triazolo[1,5-a]pyrimidine compounds as PDE2 inhibitors” (Janssen Pharmaceutica NV, priority 2016, dated 2021)
Several values for one entry are separate records, joined by “and”; a condition that tells them apart may be missing. Equal entries are not always repeated. Where two headings read alike, the source gives them in different places.

How the values were obtained:
[1] = biological target: T1, hPDE2A (Homo sapiens, UniProt O00408); assay: In vitro assay PDE2A (SPA, 3H-cGMP); format: biochemical; conditions: for Emax: read-out: hPDE2A Emax
T1 construct: made in house; host or cells: Sf9 insect cells (baculovirus)
Protocol: Human recombinant PDE2A (hPDE2A) was expressed in Sf9 cells using a recombinant rPDE10A baculovirus construct. Cells were harvested after 48 h of infection and the hPDE2A protein was purified by metal chelate chromatography on Ni-sepharose 6FF. Tested compounds were dissolved and diluted in 100% DMSO to a concentration 100 fold of the final concentration in the assay. Compound dilutions (0.4 μl) were added in 384 well plates to 20 μl of incubation buffer (50 mM Tris pH 7.8, 8.3 mM MgCl2, 1.7 mM EGTA). 10 μl of hPDE2A enzyme in incubation buffer was added and the reaction was started by addition of 10 μl substrate to a final concentration of 10 μM cGMP and 0.01 μCi ^3H-cGMP. The reaction was incubated for 45 minutes at room temperature. […] After sedimentation of the beads during 30 minutes the radioactivity was measured in a Perkin Elmer Topcount scintillation counter and results were expressed as cpm. For blanc values the enzyme was omitted from the reaction and replaced by incubation buffer. Control values were obtained by addition of a final concentration of 1% DMSO instead of compound.

[2] = test system: hPDE3B; assay: In vitro assay PDE3 (SPA, 3H-cAMP); format: biochemical, human; design: hPDE3B Emax: unit not given here; conditions: for hPDE3B pIC50: 0.4 μM cAMP substrate
[3] = biological target: hPDE10A2 (Homo sapiens, UniProt Q9Y233); assay: biochemical; conditions: for IC50: 60 nM cAMP substrate, read-out: hPDE10A2 pIC50 (converted); for Emax: read-out: hPDE10A2 Emax
Protocol: Rat recombinant PDE10A (rPDE10A2) was expressed in Sf9 cells using a recombinant rPDE10A baculovirus construct. Cells were harvested after 48 h of infection and the rPDE10A protein was purified by metal chelate chromatography on Ni-sepharose 6FF. Tested compounds were dissolved and diluted in 100% DMSO to a concentration 100 fold of the final concentration in the assay. Human recombinant PDE10A […] was expressed in Sf9 cells using a recombinant hPDE10A baculovirus that was made and amplified in house. Cells were harvested after 72 h of infection and the hPDE10A protein was purified by metal chelate chromatography on Ni-sepharose. Compound dilutions (0.4 μl) were added in 384 well plates to 20 μl of incubation buffer (50 mM Tris pH 7.8, 8.3 mM MgCl2, 1.7 mM EGTA). […] of rPDE10A or hPDE10A enzyme in incubation buffer was added and the reaction was started by addition of 10 μl substrate to a final concentration of 60 nM cAMP and 0.008 μCi ^3H-cAMP. The reaction was incubated for 60 minutes at room temperature. […] After sedimentation of the beads during 30 minutes the radioactivity was measured in a Perkin Elmer Topcount scintillation counter and results were expressed as cpm. For blanc values the enzyme was omitted from the reaction and replaced by incubation buffer. Control values were obtained by addition of a final concentration of 1% DMSO instead of compound.

[4] = biological target: T2, PDE2A (Rattus norvegicus, UniProt Q01062); assay: PDE2 occupancy by ex-vivo autoradiography with [3H]B-17a; format: in vivo
T2 construct: from tissue; host or cells: rat brain striatal sections (ex vivo)
T2 sequence (Q01062 1-928): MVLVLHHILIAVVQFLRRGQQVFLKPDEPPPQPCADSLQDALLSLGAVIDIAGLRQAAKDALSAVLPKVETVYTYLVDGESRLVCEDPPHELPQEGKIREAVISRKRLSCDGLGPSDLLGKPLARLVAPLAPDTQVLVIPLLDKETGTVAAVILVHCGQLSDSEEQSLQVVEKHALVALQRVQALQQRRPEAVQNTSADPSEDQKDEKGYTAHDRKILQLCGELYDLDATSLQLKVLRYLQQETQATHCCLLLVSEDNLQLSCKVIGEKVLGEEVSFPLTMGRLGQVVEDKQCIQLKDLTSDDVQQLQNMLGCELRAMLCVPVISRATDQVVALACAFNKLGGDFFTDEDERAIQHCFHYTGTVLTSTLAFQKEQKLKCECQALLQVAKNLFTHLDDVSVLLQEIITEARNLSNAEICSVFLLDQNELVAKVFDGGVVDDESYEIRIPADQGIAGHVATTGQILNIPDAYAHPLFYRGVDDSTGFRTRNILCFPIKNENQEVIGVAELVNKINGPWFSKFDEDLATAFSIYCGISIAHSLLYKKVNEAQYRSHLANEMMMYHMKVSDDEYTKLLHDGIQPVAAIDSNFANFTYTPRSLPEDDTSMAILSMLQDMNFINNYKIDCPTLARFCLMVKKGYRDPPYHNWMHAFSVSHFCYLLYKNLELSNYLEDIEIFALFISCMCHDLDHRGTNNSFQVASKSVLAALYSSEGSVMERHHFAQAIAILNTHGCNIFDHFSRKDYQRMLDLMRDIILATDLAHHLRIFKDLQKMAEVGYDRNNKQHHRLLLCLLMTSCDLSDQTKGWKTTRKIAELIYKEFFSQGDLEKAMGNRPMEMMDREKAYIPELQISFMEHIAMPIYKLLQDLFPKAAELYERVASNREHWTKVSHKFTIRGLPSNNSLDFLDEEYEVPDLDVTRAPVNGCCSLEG
Protocol: PDE2 Occupancy by Test Compounds Methods
Brains were immediately removed from the skull and rapidly frozen in dry-ice cooled 2-methylbutane (−40° C.).
After thawing, sections were dried under a cold stream of air and incubated for one minute with 30 nM [^3H]B-17a in Tris-HCl (50 mM, pH7.4) containing 0.3% BSA. Brain sections from drug-treated and vehicle-treated animals were incubated in parallel. […] After incubation, the excess of [^3H]B-17a was washed off in ice-cold buffer 2 times 10 minutes, followed by a quick dip in distilled water. The sections were then dried under a stream of cold air.
Brain sections were loaded in a β-imager (Biospace, Paris) for 4 h and radioactivity emerging from delineated brain area was quantified using the Beta vision program (Biospace, Paris). Specific binding was determined as the difference between total binding in the striatum and non-specific binding in the cerebellum. Percentage receptor occupancy of the drug administered to the animal corresponded to 100% minus the percentage receptor labeled in the treated animal. For the determination of ED50-values, the percentage of receptor occupancy was plotted against dose and the sigmoidal log dose-effect curve of best fit was calculated by non-linear regression analysis, using the GraphPad Prism program.

Chain of hPDE10A2 (Q9Y233 267-1055): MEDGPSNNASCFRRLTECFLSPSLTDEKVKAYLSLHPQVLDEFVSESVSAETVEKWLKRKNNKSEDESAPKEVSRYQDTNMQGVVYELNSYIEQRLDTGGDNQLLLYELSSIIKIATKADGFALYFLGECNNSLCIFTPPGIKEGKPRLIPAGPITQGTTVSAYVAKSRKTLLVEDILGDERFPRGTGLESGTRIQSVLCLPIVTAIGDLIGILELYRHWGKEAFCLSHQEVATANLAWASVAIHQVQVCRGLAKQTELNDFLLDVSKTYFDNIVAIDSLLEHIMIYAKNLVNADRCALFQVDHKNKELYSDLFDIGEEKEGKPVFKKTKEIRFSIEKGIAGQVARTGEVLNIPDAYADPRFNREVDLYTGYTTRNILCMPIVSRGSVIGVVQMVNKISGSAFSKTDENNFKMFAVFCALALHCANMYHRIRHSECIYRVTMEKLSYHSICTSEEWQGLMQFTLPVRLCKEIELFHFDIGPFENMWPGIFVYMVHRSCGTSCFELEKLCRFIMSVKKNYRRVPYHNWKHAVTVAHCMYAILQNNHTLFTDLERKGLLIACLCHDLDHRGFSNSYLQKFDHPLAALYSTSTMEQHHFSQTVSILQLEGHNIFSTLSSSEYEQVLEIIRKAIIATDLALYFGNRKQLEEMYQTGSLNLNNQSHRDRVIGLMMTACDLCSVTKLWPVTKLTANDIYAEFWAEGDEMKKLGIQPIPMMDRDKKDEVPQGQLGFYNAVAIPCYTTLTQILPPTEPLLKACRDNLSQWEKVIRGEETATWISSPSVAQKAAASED
T1 sequence (O00408 whole entry): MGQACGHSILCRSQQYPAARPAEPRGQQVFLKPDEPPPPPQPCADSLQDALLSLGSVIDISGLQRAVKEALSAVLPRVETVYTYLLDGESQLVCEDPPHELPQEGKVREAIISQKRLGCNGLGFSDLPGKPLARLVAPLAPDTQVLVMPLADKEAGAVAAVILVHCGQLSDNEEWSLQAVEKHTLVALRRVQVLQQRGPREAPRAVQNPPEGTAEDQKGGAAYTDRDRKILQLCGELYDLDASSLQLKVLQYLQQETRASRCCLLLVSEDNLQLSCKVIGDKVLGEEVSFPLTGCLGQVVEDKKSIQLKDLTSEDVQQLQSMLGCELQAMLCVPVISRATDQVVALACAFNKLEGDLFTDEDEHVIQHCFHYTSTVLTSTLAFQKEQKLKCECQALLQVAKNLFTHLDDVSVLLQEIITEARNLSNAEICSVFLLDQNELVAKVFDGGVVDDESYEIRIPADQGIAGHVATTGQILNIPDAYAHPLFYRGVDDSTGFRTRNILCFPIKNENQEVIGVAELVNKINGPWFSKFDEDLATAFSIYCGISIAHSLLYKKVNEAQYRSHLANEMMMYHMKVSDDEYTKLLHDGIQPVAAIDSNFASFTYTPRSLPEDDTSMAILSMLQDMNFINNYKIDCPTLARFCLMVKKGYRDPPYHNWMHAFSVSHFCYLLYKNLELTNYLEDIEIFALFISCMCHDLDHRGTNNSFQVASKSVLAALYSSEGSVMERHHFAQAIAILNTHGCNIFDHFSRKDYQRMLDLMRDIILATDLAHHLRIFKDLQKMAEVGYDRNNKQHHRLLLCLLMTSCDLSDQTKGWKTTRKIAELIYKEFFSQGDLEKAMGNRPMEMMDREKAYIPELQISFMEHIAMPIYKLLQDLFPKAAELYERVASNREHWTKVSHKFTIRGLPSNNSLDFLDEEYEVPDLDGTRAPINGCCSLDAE

Row | Structure (SMILES) | IC50 [1] | Emax [1] | hPDE3B Emax [2] | hPDE3B pIC50 [2] | IC50 [3] | Emax [3] | PDE2 occupancy at 10 mg/kg ([4]; route SC (subcutaneous), 10 mg/kg, male Wistar rats, striatum, percentage occupancy) | melting point | IC50 ([1]; 10 μM cGMP substrate, read-out: hPDE2A pIC50 (converted)) | receptor occupancy at 10 mg/kg ([4]; rat, po, read-out: PDE2 occupancy at 10 mg/kg, route PO (oral), 10 mg/kg, male Wistar rats, striatum, percentage occupancy) | ED50 ([4]; rat, po, read-out: PDE occupancy ED50, route PO (oral), male Wistar rats, dose producing 50% occupancy) | receptor occupancy at 10 mg/kg ([4]; rat, route PO (oral), 10 mg/kg, male Wistar rats, striatum, percentage occupancy, read-out: PDE2 occupancy at 10 mg/kg)
1 | C[C@@H]1CCN(c2nccc3occc23)C[C@H]1c1cc(C(F)F)nc2ncnn12 [Compound 13] | 15.8 nM | 98% | 54 | 5.07 | 457 nM | 91% | 41 and 67 | 182.59 °C | – | – | – | –
2 | C[C@@H]1CCN(c2nccc3ccc(Cl)cc23)C[C@H]1c1cc(C(F)F)nc2ncnn12 [Compound 4] | – | 100% | 82 | 5.39 | 347 nM | 101% | – | 135.42 °C | 3.39 nM | 93% | 8.1 mg/kg | –
3 | Cc1cc(C(F)(F)F)cc(N2CC[C@@H](C)[C@H](c3cc(C(F)F)nc4ncnn34)C2)n1 [Compound 21] | 61.7 nM | 101% | 93 | 5.83 | 269 nM | 95% | – | 124.81 °C | – | – | – | 9%
